Measurements published in patent US20110306597A1, “Nicotinamide Derivatives” (priority 2008, published 2011).

Biological target: human recombinant H-PGDS (Homo sapiens, UniProt O60760)
Test: Fluorescence Intensity h-PGDS TBA Enzyme Assay
Assay type: biochemical
Settings: 1:175,000 human recombinant H-PGDS, highest inhibitor concentration typically 1 μM
Protocol: Fluorescence Intensity h-PGDSTBA Enzyme Assay
Prostaglandin D Synthase (PGDS) converts the substrate prostaglandin H2 (PGH2) to prostaglandin D2. The depletion of PGH2 was measured via an Fe(II) reduction of the remaining PGH2 to malondialdehyde (MDA) and 12-HHT. The enzyme assay is based on the quantitative formation of a fluorescent complex from the non-fluorescent compounds MDA and 2-thiobarbituric acid (TBA), substantially as described in U.S. patent application publication US-2004/152148 by Lombardt.
The enzyme assay (31 μls) contained 100 mM Tris base pH 8.0, 100 μM MgCl2, 0.1 mg/ml IgG Rabbit serum, 5.0 μM PGH2 (Cayman; ethanol solution, #17020), 2.5 mM L-Glutathione (Sigma; reduced form #G4251), 1:175,000 human recombinant H-PGDS (from 1 mg/ml), 0.5% DMSO and inhibitor (varying concentration). Three μls of diluted inhibitor (dissolved in DMSO) was plated into a 384-well assay plate followed by a 25 μl addition of an enzyme solution containing h-PGDS, Tris, MgCl2, IgG and L-Glutathione. After preincubation of inhibitor and enzyme solution for 10 minutes at room temperature, the reaction was initiated with a 3 μl addition of substrate solution in 10 mM HCl. The reaction was terminated after 42 second by the addition (3 μl) of stop buffer containing FeCl2 and citric acid. After addition of 45.5 μls of TBA plates were heated for one hour in a 70 C oven. Plates were cooled at room temperature overnight and read on a plate reader the next day with excitation @ 530 nm and emission @ 565 nm.
IC50's of inhibitors were calculated with a 4-parameter fit using 11 inhibitor concentrations in duplicate with 3-fold serial dilutions. Controls on each plate included no inhibitor (zero % effect) and an inhibitor 10-fold in excess of its' IC50 (100% effect). The highest inhibitor concentration tested was typically 1 μM.

Sequence of human recombinant H-PGDS (O60760 whole entry): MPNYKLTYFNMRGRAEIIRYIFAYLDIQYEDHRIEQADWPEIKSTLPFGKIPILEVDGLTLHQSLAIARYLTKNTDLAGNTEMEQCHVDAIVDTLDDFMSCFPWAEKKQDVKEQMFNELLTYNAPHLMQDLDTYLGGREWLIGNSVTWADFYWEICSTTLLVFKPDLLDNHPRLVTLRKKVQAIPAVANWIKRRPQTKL

Compound | IC50 [nM]
O=C(N[C@@H](CO)c1ccccc1)c1ccc(-c2cccc(F)c2)nc1 [Example 78, 6-(3-Fluorophenyl)-N-[(1R)-2-hydroxy-1-phenylethyl] nicotinamide] | 45
O=C(NCCn1nnc2ccccc21)c1ccc(-c2cccc(F)c2)nc1 [Example 82, N-[2-(1H-Benzotriazol-1-yl)ethyl]-6-(3-fluorophenyl)nicotinamide] | 21.5
O=C(NCC1CCCN(c2ncc3c(n2)CCOC3)C1)c1ccc(-c2cccc(F)c2)nc1 (centres unmarked) [Example 84, N-{[1-(7,8-Dihydro-5H-pyrano[4,3-d]pyrimidin-2-yl)piperidin-3-yl]methyl}-6-(3-fluorophenyl)nicotinamide] | 13.8
Cc1ncsc1CCCNC(=O)c1ccc(-c2cccc(F)c2)nc1 [Example 85, 6-(3-Fluorophenyl)-N-[3-(4-methyl-1,3-thiazol-5-yl)propyl]nicotinamide] | 4.88
CCc1nccn1CCCNC(=O)c1ccc(-c2cccc(F)c2)nc1 [Example 86, N-[3-(2-Ethyl-1H-imidazol-1-yl)propyl]-6-(3-fluorophenyl)nicotinamide] | 14.8
CN1CCc2nc(N3CCCC(CNC(=O)c4ccc(-c5cccc(F)c5)nc4)C3)ncc2C1 (centres unmarked) [Example 89, 6-(3-Fluorophenyl)-N-{[1-(6-methyl-5,6,7,8-tetrahydropyrido[4,3-d]pyrimidin-2-yl)piperidin-3-yl]methyl}nicotinamide] | 6.13
CN1CCc2nc(N3CCC(NC(=O)c4ccc(-c5cccc(F)c5)nc4)C3)ncc2C1 (centres unmarked) [Example 90, 6-(3-Fluorophenyl)-N-[1-(6-methyl-5,6,7,8-tetrahydropyrido[4,3-d]pyrimidin-2-yl)pyrrolidin-3-yl]nicotinamide] | 0.852

Other lines, results leading:

IC50 [nM] | Compound
10.3 | O=C(NCC(O)c1ccccc1F)c1ccc(-c2cccc(F)c2)nc1 (centres unmarked) [Example 79, 6-(3-Fluorophenyl)-N-[2-(2-fluorophenyl)-2-hydroxyethyl]nicotinamide]
41.2 | C[C@@H](NC(=O)c1ccc(-c2cccc(F)c2)nc1)[C@@H](O)c1ccccc1 [Example 81, 6-(3-Fluorophenyl)-N-[(1R,2S)-2-hydroxy-1-methyl-2-phenethyl]nicotinamide]
72.8 | CC(C)c1noc(CNC(=O)c2ccc(-c3cccc(F)c3)nc2)n1 [Example 83, 6-(3-Fluorophenyl)-N-[(3-isopropyl-1,2,4-oxadiazol-5-yl)methyl]nicotinamide]
35.8 | Cc1noc(CC(NC(=O)c2ccc(-c3cccc(F)c3)nc2)c2ccccc2)n1 (centres unmarked) [Example 87, 6-(3-Fluorophenyl)-N-[2-(3-methyl-1,2,4-oxadiazol-5-yl)-1-phenylethyl]nicotinamide]
9.06 | O=C(NCCc1nnc(C2CC2)[nH]1)c1ccc(-c2cccc(F)c2)nc1 [Example 88, N-[2-(5-Cyclopropyl-4H-1,2,4-triazol-3-yl)ethyl]-6-(3-fluorophenyl)nicotinamide]
6.44 | Cc1noc(C)c1CCCNC(=O)c1ccc(-c2cccc(F)c2)nc1 [Example 91, N-[3-(3,5-Dimethylisoxazol-4-yl)propyl]-6-(3-fluorophenyl)nicotinamide]
18.7 | Cc1ccn(CCNC(=O)c2ccc(-c3cccc(F)c3)nc2)n1 [Example 92, 6-(3-Fluorophenyl)-N-[2-(3-methyl-1H-pyrazol-1-yl)ethyl]nicotinamide]
12.5 | O=C(NCCc1nccs1)c1ccc(-c2cccc(F)c2)nc1 [Example 93, 6-(3-Fluorophenyl)-N-[2-(1,3-thiazol-2-yl)ethyl]nicotinamide]
14.8 | Cc1cn2cc(CNC(=O)c3ccc(-c4cccc(F)c4)nc3)nc2s1 [Example 94, 6-(3-Fluorophenyl)-N-[(2-methylimidazo[2,1-b][1,3]thiazol-6-yl)methyl]nicotinamide]
95.7 | Cc1cc(C)nc(CNC(=O)c2ccc(-c3cccc(F)c3)nc2)n1 [Example 95, N-[(4,6-Dimethylpyrimidin-2-yl)methyl]-6-(3-fluorophenyl)nicotinamide]
